What was measured:
TS13-64 cells = assay: WST cytotoxicity / cell viability assay (EZ-Cytox), 72 h drug treatment; type: cell-based, human; conditions: for Measured value (cell viability) / Value expressed relative to administration alone: TS13-64; for Measured value (cell viability): G and P 10 μM each; for Measured value (cell viability) / Cancer cell killing (cytotoxicity), comparison in words: 72 h; for Value expressed relative to administration alone: viability with anticancer drug alone set to 1; for Cancer cell killing (cytotoxicity), comparison in words: TS13-64 cells, compared with single agents or other combinations, PTX and 5-FU at high concentration (H) vs TMZ alone
Description: (§1) Cultured tumorsphere-forming glioblastoma cells (GBM TS) were seeded into 96-well plates at a density of 10^4 cells/well and treated for 72 hours with a drug-containing medium prepared in a Preparation Example (a control group was treated with general culture medium), and then cytotoxicity to the cancer cells was measured by WST assay using EZ-Cytox reagent (DoGenBio, Seoul, Korea) according to the manufacturer's protocol.
(§2) For the present disclosure, two types of tumorsphere (TS)-forming glioblastoma (GBM) cells were used. TS13-64 cells are primary tumor cells derived from a GBM patient, and established from a new GBM tissue sample under the approval of the Institutional Review Board of the Yonsei University College of Medicine (approval Nos: 4-2012-0212 and 4-2014-0649). As U87 cells, spherical cells prepared by culturing the U87MG cell line under TS culture conditions were used. For TS culture, cells were treated with DMEM/F-12 medium containing 2 wt % 1×B27, 0.02 wt % bFGF (20 ng/ml), 0.02 wt % EGF (20 ng/ml) and 50 U/ml penicillin/[…] streptomycin (100×, Gibco, Invitrogen Korea, Seoul, South Korea), and all in vitro experiments were performed under TS culture conditions.
(§3) For use in in vitro experiments, gossypol (G) and phenformin (P, Sigma-Aldrich) were dissolved in DMSO and H2O, respectively, at a concentration of 10 μM. The anticancer drug temozolomide (TMZ, Sigma-Aldrich) was dissolved in DMSO and used at a concentration of 250 μM. As controls for the anticancer drug TMZ for co-administration with gossypol and phenformin, other anticancer drugs, paclitaxel (PTX) and fluorouracil (5-FU), were used. […] That is, in the same manner as TMZ, paclitaxel was prepared and used at a low concentration of 2 nM and a high concentration of 5 nM, and fluorouracil was prepared and used at a low concentration of 50 μM and a high concentration of 100 μM (low concentration is indicated by L, and high concentration is indicated by H).
as §1, with “in the” for “in a”
(§4) Evaluation of cytotoxicity to cancer cells and the sphere-forming ability of cells was performed in the same manner as in Example 1.
(§5) In order to more easily compare these effects, the cell viability value obtained upon administration of each anticancer drug alone was set to 1, and the cell viability value obtained upon co-administration was expressed relative to the cell viability value obtained upon administration of each anticancer drug alone.

U87 cells = assay: as above; type: cell-based; conditions: for Measured value (cell viability) / Value expressed relative to administration alone: U87; for Measured value (cell viability): G and P 10 μM each; for Measured value (cell viability) / Cancer cell killing (cytotoxicity), comparison in words: 72 h; for Value expressed relative to administration alone: viability with anticancer drug alone set to 1; for Cancer cell killing (cytotoxicity), comparison in words: spherical U87 cells, compared with single agents or other combinations, PTX and 5-FU at high concentration (H) vs TMZ alone
Description: as §1, §2, §3
as §1, with “in the” for “in a”
as §4, §5

[1] = high concentration (H): PTX 5 nM, 5-FU 100 μM
[2] = low concentration (L): PTX 2 nM, 5-FU 50 μM

Cn1nnc2c(C(N)=O)ncn2c1=O [TMZ, temozolomide]
Measured value (cell viability) (TS13-64 cells; TMZ 250 μM): 0.781
Value expressed relative to administration alone (TS13-64 cells; TMZ 250 μM): 1.000
Measured value (cell viability) (U87 cells; TMZ 250 μM): 0.879
Value expressed relative to administration alone (U87 cells; TMZ 250 μM): 1.000

CC(=O)O[C@H]1C(=O)[C@@]2(C)[C@H]([C@H](OC(=O)c3ccccc3)[C@]3(O)C[C@H](OC(=O)[C@H](O)[C@@H](NC(=O)c4ccccc4)c4ccccc4)C(C)=C1C3(C)C)[C@]1(OC(C)=O)CO[C@@H]1C[C@@H]2O [PTX, paclitaxel]
Measured value (cell viability) (TS13-64 cells; [1]): 0.675
Value expressed relative to administration alone (TS13-64 cells; [1]): 1.000
Measured value (cell viability) (TS13-64 cells; [2]): 0.764
Value expressed relative to administration alone (TS13-64 cells; [2]): 1.000
Cancer cell killing (cytotoxicity), comparison in words (TS13-64 cells): higher
Measured value (cell viability) (U87 cells; [1]): 0.720
Value expressed relative to administration alone (U87 cells; [1]): 1.000
Measured value (cell viability) (U87 cells; [2]): 0.947
Value expressed relative to administration alone (U87 cells; [2]): 1.000
Cancer cell killing (cytotoxicity), comparison in words (U87 cells): higher

O=c1[nH]cc(F)c(=O)[nH]1 [5FU, fluorouracil]
Measured value (cell viability) (TS13-64 cells; [1]): 0.756
Value expressed relative to administration alone (TS13-64 cells; [1]): 1.000
Measured value (cell viability) (TS13-64 cells; [2]): 0.826
Value expressed relative to administration alone (TS13-64 cells; [2]): 1.000
Cancer cell killing (cytotoxicity), comparison in words (TS13-64 cells): higher
Measured value (cell viability) (U87 cells; [1]): 0.804
Value expressed relative to administration alone (U87 cells; [1]): 1.000
Measured value (cell viability) (U87 cells; [2]): 0.980
Value expressed relative to administration alone (U87 cells; [2]): 1.000
Cancer cell killing (cytotoxicity), comparison in words (U87 cells): higher

Reference: patent US11998543B2, “Pharmaceutical composition comprising aldehyde inhibitor and anticancer agent for treatment of brain cancer” (Industry-Academic Cooperation Foundation, Yonsei University, priority 2018, dated 2024)
